Measurements reported in patent US20200024278A1, “COMPOSITION COMPRISING ANTIBIOTIC COMPOUND AND AN HETEROCYCLIC COMPOUND AND THEIR USE IN PREVENTING OR TREATING BACTERIAL INFECTIONS” (MUTABILIS, priority 2016, published 2020).
Like-named read-outs stand apart in the source and are kept apart here. One block for each compound: values may come before it.

Assays:
Assay in all cases: MIC, broth microdilution (CLSI), substance alone or ATB combined with compound at 4 or 8 μg/mL
PAE 105250 = assay type: cell-based, P. aeruginosa; conditions: PAE 105250; for MIC: Pseudomonas aeruginosa
Protocol: (§1) Compounds of the present invention were assessed against genotyped bacterial strains alone or in combination with an antibacterial. In the assays, MICs of said compounds or combination of antibiotics with fixed concentrations of said compounds (4 or 8 μg/mL) were determined by the broth microdilution method according to the Clinical Laboratory Standards Institute (CLSI-M7-A7). Briefly, compounds alone according to the invention were prepared in DMSO and spotted (2 μL each) on sterile polystyrene plates (Corning, 3788). Combinations of compounds and antibiotics dilutions were prepared in DMSO and spotted (1 μL each) on sterile polystyrene plates (Corning, 3788). Log phase bacterial suspensions were adjusted to a final density of 5·10^5 CFU/mL in cation-adjusted Mueller-Hinton broth (ca-MHB; Becton-Dickinson and Company) and added to each well (98 μL). Assays including Fosfomycin were supplemented with 25 μg/ml of Glucose-6-phosphate. Microplates were incubated for 16-20 h at 35° C. in ambient air. The MIC of the compounds was defined as the lowest concentration of said compounds that prevented bacterial growth as read by visual inspection. The MIC of ATB at each compound concentration was defined as the lowest concentration of ATB that prevented bacterial growth as read by visual inspection.

ECO 190317 = assay type: cell-based, E. coli; conditions: ECO 190317
Protocol: as §1

SPN 49619 = assay type: cell-based, S. pneumoniae; conditions: SPN 49619; for MIC: Streptococcus pneumoniae
Protocol: as §1

PAE UFR48 = assay type: cell-based, P. aeruginosa; conditions: PAE UFR48
Protocol: as §1

PAE UFR90 = assay type: cell-based, P. aeruginosa; conditions: PAE UFR90
Protocol: as §1

ECO UFR39 = assay type: cell-based, E. coli; conditions: ECO UFR39
Protocol: as §1

ECL P99 = assay type: cell-based, E. cloacae; conditions: ECL P99
Protocol: as §1

SAU 29213 = assay type: cell-based, S. aureus; conditions: SAU 29213
Protocol: as §1

[1] = antibiotic alone, read-out: MIC ATB alone

SMILES: C[C@H]1[C@H](NC(=O)/C(=N\OC(C)(C)C(=O)O)c2csc(N)n2)C(=O)N1S(=O)(=O)O [ATM, Aztreonam, reference compound]
MIC (PAE 105250; [1]): 8 µg/mL
MIC (PAE 105250; substance alone, read-out: MIC): 8 µg/mL
MIC (ECO 190317; Escherichia coli, antibiotic alone, read-out: MIC ATB alone): 128 µg/mL
MIC (SPN 49619; [1]): > 64 µg/mL
MIC (SPN 49619; substance alone, read-out: MIC): > 64 µg/mL

MIC ATB alone (SPN 49619; CLI alone): 0.125 µg/mL
MIC ATB alone (SPN 49619; antibiotic alone): 0.125 µg/mL
MIC ATB combined with Example 1 @8 μg/ml (SPN 49619; with Example 1 @8 μg/ml): 0.063 µg/mL
MIC ATB combined with Example 9 @4 μg/ml (SPN 49619): 0.0039 µg/mL
SMILES: CCC[C@@H]1C[C@@H](C(=O)N[C@@H]([C@H]2O[C@H](SC)[C@H](O)[C@@H](O)[C@H]2O)[C@H](C)Cl)N(C)C1 [CLI]

MIC ATB alone (PAE UFR48; antibiotic alone): 512 µg/mL
MIC ATB combined with Example 1 @8 μg/ml (PAE UFR48; with Example 1 @8 μg/ml): <0.031 µg/mL
MIC ATB combined with Example 1 @8 μg/ml (PAE UFR48; with Example 1 at 8 μg/ml): <0.031 µg/mL
MIC ATB combined with Example 12 @8 μg/ml (PAE UFR48; with Example 12 at 8 μg/ml): >32 µg/mL
MIC ATB combined with Example 14 @8 μg/ml (PAE UFR48; with Example 14 at 8 μg/ml): >32 µg/mL
MIC ATB combined with Example 16 @4 μg/ml (PAE UFR48; with Example 16 at 4 μg/ml): >32 µg/mL
MIC ATB combined with Example 12 @8 μg/ml (PAE 105250; with Example 12 at 8 μg/ml): >32 µg/mL
MIC ATB combined with Example 14 @8 μg/ml (PAE 105250; with Example 14 at 8 μg/ml): >32 µg/mL
MIC ATB combined with Example 16 @4 μg/ml (PAE 105250; with Example 16 at 4 μg/ml): >32 µg/mL
MIC ATB alone (PAE UFR90; antibiotic alone): >1024 µg/mL
MIC ATB combined with Example 1 @8 μg/ml (PAE UFR90; with Example 1 @8 μg/ml): <0.031 µg/mL
MIC ATB combined with Example 1 @8 μg/ml (PAE UFR90; with Example 1 at 8 μg/ml): <0.031 µg/mL
MIC ATB combined with Example 12 @8 μg/ml (PAE UFR90; with Example 12 at 8 μg/ml): >32 µg/mL
MIC ATB combined with Example 14 @8 μg/ml (PAE UFR90; with Example 14 at 8 μg/ml): >32 µg/mL
MIC ATB combined with Example 16 @4 μg/ml (PAE UFR90; with Example 16 at 4 μg/ml): >32 µg/mL
MIC ATB alone (ECO 190317; antibiotic alone): 8 µg/mL
MIC ATB combined with Example 1 @8 μg/ml (ECO 190317; with Example 1 @8 μg/ml): <0.031 µg/mL
MIC ATB combined with Example 1 @8 μg/ml (ECO 190317; with Example 1 at 8 μg/ml): <0.031 µg/mL
MIC ATB combined with Example 7 @8 μgml (ECO 190317; with Example 7 at 8 μg/ml): <0.031 µg/mL
MIC ATB combined with Example 13 @8 μg/ml (ECO 190317; with Example 13 at 8 μg/ml): <0.031 µg/mL
MIC ATB alone (ECO UFR39; antibiotic alone): 64 µg/mL
MIC ATB combined with Example 1 @8 μg/ml (ECO UFR39; with Example 1 @8 μg/ml): <0.031 µg/mL
MIC ATB combined with Example 1 @8 μg/ml (ECO UFR39; with Example 1 at 8 μg/ml): <0.031 µg/mL
MIC ATB combined with Example 7 @8 μgml (ECO UFR39; with Example 7 at 8 μg/ml): <0.031 µg/mL
MIC ATB combined with Example 13 @8 μg/ml (ECO UFR39; with Example 13 at 8 μg/ml): <=0.031 μg/mL
MIC ATB alone (SPN 49619; antibiotic alone): 4 µg/mL
MIC ATB combined with Example 1 @8 μg/ml (SPN 49619; with Example 1 @8 μg/ml): 4 µg/mL
MIC ATB combined with Example 1 @8 μg/ml (SPN 49619; with Example 1 at 8 μg/ml): 4 µg/mL
MIC ATB combined with Example 7 @8 μgml (SPN 49619; with Example 7 at 8 μg/ml): 2 µg/mL
MIC ATB combined with Example 11 @8 μg/ml (SPN 49619; with Example 11 at 8 μg/ml): 2 µg/mL
MIC ATB combined with Example 13 @8 μg/ml (SPN 49619; with Example 13 at 8 μg/ml): 2 µg/mL
MIC ATB combined with Example 15 @4 μgml (SPN 49619; with Example 15 at 4 μg/ml): 2 µg/mL
MIC ATB combined with Example 16 @4 μg/ml (SPN 49619; with Example 16 at 4 μg/ml): <=0.031 μg/mL
MIC ATB alone (ECL P99; antibiotic alone): 512 µg/mL
MIC ATB combined with Example 1 @8 μg/ml (ECL P99; with Example 1 @8 μg/ml): <0.031 µg/mL
MIC ATB combined with Example 1 @8 μg/ml (ECL P99; with Example 1 at 8 μg/ml): <0.031 µg/mL
MIC ATB alone (SAU 29213; antibiotic alone): 16 µg/mL
MIC ATB combined with Example 1 @8 μg/ml (SAU 29213; with Example 1 @8 μg/ml): 16 µg/mL
MIC ATB combined with Example 1 @8 μg/ml (SAU 29213; with Example 1 at 8 μg/ml): 16 µg/mL
MIC ATB combined with Example 7 @8 μgml (SAU 29213; with Example 7 at 8 μg/ml): 4 µg/mL
MIC ATB combined with Example 11 @8 μg/ml (SAU 29213; with Example 11 at 8 μg/ml): <=0.031 μg/mL
MIC ATB combined with Example 13 @8 μg/ml (SAU 29213; with Example 13 at 8 μg/ml): 4 µg/mL
MIC ATB combined with Example 15 @4 μgml (SAU 29213; with Example 15 at 4 μg/ml): 0.063 µg/mL
SMILES: O=C(N[C@H](CO)[C@H](O)c1ccc([N+](=O)[O-])cc1)C(Cl)Cl [CM]

MIC ATB alone (SPN 49619; ERY alone): 0.063 µg/mL
MIC ATB alone (SPN 49619; antibiotic alone): 0.063 µg/mL
MIC ATB combined with Example 1 @8 μg/ml (SPN 49619; with Example 1 @8 μg/ml): 0.063 µg/mL
MIC ATB combined with Example 9 @4 μg/ml (SPN 49619): <0.0020 µg/mL
MIC ATB alone (SAU 29213; ERY alone): 1 µg/mL
MIC ATB alone (SAU 29213; antibiotic alone): 1 µg/mL
MIC ATB combined with Example 1 @8 μg/ml (SAU 29213; with Example 1 @8 μg/ml): 0.25 µg/mL
MIC ATB combined with Example 9 @4 μg/ml (SAU 29213): <=0.0020 μg/mL
SMILES: CC[C@H]1OC(=O)[C@H](C)[C@@H](O[C@H]2C[C@@](C)(OC)[C@@H](O)[C@H](C)O2)[C@H](C)[C@@H](O[C@@H]2O[C@H](C)C[C@H](N(C)C)[C@H]2O)[C@](C)(O)C[C@@H](C)C(=O)[C@H](C)[C@@H](O)[C@]1(C)O [ERY]

MIC ATB alone (SPN 49619; LZD alone): 1 µg/mL
MIC ATB alone (SPN 49619; antibiotic alone): 1 µg/mL
MIC ATB combined with Example 1 @8 μg/ml (SPN 49619; with Example 1 @8 μg/ml): 1 µg/mL
MIC ATB combined with Example 9 @4 μg/ml (SPN 49619): <=0.0078 μg/mL
MIC ATB alone (SAU 29213; LZD alone): 4 µg/mL
MIC ATB alone (SAU 29213; antibiotic alone): 4 µg/mL
MIC ATB combined with Example 1 @8 μg/ml (SAU 29213; with Example 1 @8 μg/ml): 2 µg/mL
MIC ATB combined with Example 9 @4 μg/ml (SAU 29213): <0.0078 µg/mL
SMILES: CC(=O)NC[C@H]1CN(c2ccc(N3CCOCC3)c(F)c2)C(=O)O1 [LZD]

MIC ATB alone (SPN 49619; RIF alone): 0.031 µg/mL
MIC ATB alone (SPN 49619; antibiotic alone): 0.031 µg/mL
MIC ATB combined with Example 1 @8 μg/ml (SPN 49619; with Example 1 @8 μg/ml): 0.063 µg/mL
MIC ATB combined with Example 9 @4 μg/ml (SPN 49619): 0.00024 µg/mL
MIC ATB alone (SAU 29213; RIF alone): 0.0078 µg/mL
MIC ATB alone (SAU 29213; antibiotic alone): 0.0078 µg/mL
MIC ATB combined with Example 1 @8 μg/ml (SAU 29213; with Example 1 @8 μg/ml): 0.0078 µg/mL
MIC ATB combined with Example 9 @4 μg/ml (SAU 29213): 0.002 µg/mL
SMILES: CO[C@H]1/C=C/O[C@@]2(C)Oc3c(C)c(O)c4c(O)c(c(/C=N/N5CCN(C)CC5)c(O)c4c3C2=O)NC(=O)/C(C)=C\C=C\[C@H](C)[C@H](O)[C@@H](C)[C@@H](O)[C@@H](C)[C@H](OC(C)=O)[C@@H]1C [RIF]

MIC ATB alone (SPN 49619; antibiotic alone): 0.25 µg/mL
MIC ATB combined with Example 1 @8 μg/ml (SPN 49619; with Example 1 @8 μg/ml): 0.25 µg/mL
MIC ATB combined with Example 9 @4 μg/ml (SPN 49619): <0.0039 µg/mL
MIC ATB alone (SPN 49619; VAN alone): 0.25 µg/mL
MIC ATB alone (SAU 29213; antibiotic alone): 1 µg/mL
MIC ATB combined with Example 1 @8 μg/ml (SAU 29213; with Example 1 @8 μg/ml): 1 µg/mL
MIC ATB combined with Example 9 @4 μg/ml (SAU 29213): <0.0039 µg/mL
MIC ATB alone (SAU 29213; VAN alone): 1 µg/mL
SMILES: CN[C@H](CC(C)C)C(=O)N[C@H]1C(=O)N[C@@H](CC(N)=O)C(=O)N[C@H]2C(=O)N[C@H]3C(=O)N[C@H](C(=O)N[C@H](C(=O)O)c4cc(O)cc(O)c4-c4cc3ccc4O)[C@H](O)c3ccc(c(Cl)c3)Oc3cc2cc(c3O[C@@H]2O[C@H](CO)[C@@H](O)[C@H](O)[C@H]2O[C@H]2C[C@](C)(N)[C@H](O)[C@H](C)O2)Oc2ccc(cc2Cl)[C@H]1O [VAN]
